The values that follow come from patent US6962923B2, “Pyrazole compositions” (Pfizer Inc., priority 1999, dated 2005).

For data set [1] the following is noted: in man; cited from earlier work.
The conditions of data set [2]: hypertensive patients; cited from earlier work.
For the next data set, the system named is neointimal formation. Conditions: cited from earlier work.

In the case of `CCCC[C@@H](NC(=O)[C@@H](Cc1cn(C(=O)OC)c2ccccc12)NC(=O)[C@H](CC(C)(C)C)NC(=O)N1[C@H](C)CCC[C@@H]1C)C(=O)O` [BQ-788], the peripheral resistance result in data set [1] is given as “increase peripheral resistance”.

In the case of `COc1ccccc1Oc1c(NS(=O)(=O)c2ccc(C(C)(C)C)cc2)nc(-c2ncccn2)nc1OCCO` [Bosentan], in data set [2], the blood pressure result is “decreased blood pressure”. As usually defined, the melting point is the temperature, or range, at which the solid turns liquid. As for `COc1ccccc1Oc1c(OC)nn(C)c1NS(=O)(=O)c1ccc(C(C)(C)C)cc1` [Example 107, 4-(tert-Butyl)-N-[3-methoxy-4-(2-methoxyphenoxy)-1-methyl-1H-pyrazol-5-yl]benzenesulfonamide], the melting point was found to be 187.6 °C. For the molecule `CCCOc1ccc2c(c1)[C@@H](c1ccc(OC)cc1OCC(=O)O)[C@H](C(=O)O)[C@H]2c1ccc2c(c1)OCO2` [SB-209670], in the data set on neointimal formation, the “reduction in neointimal formation relative to control animals” value is recorded as 50%.
